Reference: patent US20260365692A1, “COMPOSITIONS COMPRISING PROTEINS DISSOLVED IN FLUORINATED SOLVENTS, AND METHODS OF MAKING AND USING THE SAME” (priority 2022, published 2026)
pIC50: −log10 of the molar value.

What was measured:
[1] = β-Gal activity after bleach exposure; assay type: physicochemical; conditions: β-Gal in PFOc
Description: FIGS. 54A-54C depict the relative activity of the β-Gal protein dispersed in PBS or PFOc solvents without and with contamination by (FIG. 54A) proteinase K, (FIG. 54B) bleach or (FIG. 54C) hydrochloric acid. Data shown as average±s.d. of n=3 technical replicates. Statistical significance between conditions is indicated by a line using unpaired Student's t-test with n.s.=not significant, * p<0.05, ** p<0.01, and *** p<0.001.
Here, stock of lyophilized β-Gal was prepared then dispersed in PBS or PFOc. A small volumetric quantity (1% v/v) of 10% bleach was added to the protein samples. Immediately, an equal volume of PBS containing 4 mg/mL ONPG substrate was added to the sample and incubated for 5 minutes to allow for complete substrate conversion. Last, absorbance was taken at 420 nm on the eluted samples, and relative activity was calculated by normalizing absorbance of converted ONPG in oxidizer-treated samples against their corresponding untreated group. […] Here, stock of lyophilized B-Gal was prepared then dispersed in PBS or PFOc. A small volumetric quantity (4% v/v) of 0.1 M HCl was added to the protein samples. After 30 seconds incubation, PBS containing 4 mg/mL ONPG was added to each of the samples to elute and start substrate conversion. After 3-minute conversion, the eluted samples were retrieved, and absorbance was read at 420 nm. […]

[2] = biological target: bovine serum albumin (BSA) (Bos taurus, UniProt P02769); assay: Circular dichroism with PFNA, BSA
Chain of bovine serum albumin (BSA) (P02769 25-607): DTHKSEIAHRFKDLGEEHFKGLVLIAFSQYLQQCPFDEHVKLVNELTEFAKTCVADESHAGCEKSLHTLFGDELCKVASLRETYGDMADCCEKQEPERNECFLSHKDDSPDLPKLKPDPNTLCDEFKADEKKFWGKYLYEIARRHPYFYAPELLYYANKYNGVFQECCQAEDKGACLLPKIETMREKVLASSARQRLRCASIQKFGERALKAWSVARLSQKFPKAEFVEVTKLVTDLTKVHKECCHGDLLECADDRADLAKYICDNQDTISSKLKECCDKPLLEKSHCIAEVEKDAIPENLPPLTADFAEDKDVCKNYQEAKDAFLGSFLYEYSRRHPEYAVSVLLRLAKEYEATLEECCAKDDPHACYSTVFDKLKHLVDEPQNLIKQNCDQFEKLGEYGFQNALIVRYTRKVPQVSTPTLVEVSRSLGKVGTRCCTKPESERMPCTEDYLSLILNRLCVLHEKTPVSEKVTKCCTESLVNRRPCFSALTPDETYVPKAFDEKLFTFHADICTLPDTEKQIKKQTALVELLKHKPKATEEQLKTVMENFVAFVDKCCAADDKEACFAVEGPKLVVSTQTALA
From the text: (§1) FIGS. 14A-14L depict circular dichroism spectra of Hb (FIG. 14A), GFP (FIG. 14B), BSA (FIG. 14C), β-Gal (FIG. 14D), rabbit serum IgG (FIG. 14E), transferrin (FIG. 14F), and urease (FIG. 14G) in the absence (black line) or presence (dashed lines) of PFNA. Increasing dash sequence indicated higher concentration of PFNA. FIG. 14H: Change in molar ellipticity at 216 nm (Δθ216) of PFNA-treated proteins, relative to native controls, as a function of increasing ligand concentration. FIG. 14I: Percentage change in secondary structural motifs of Hb, β-Gal and IgG between the native protein and 1 mM PFNA treated samples. β-sheet structures were further differentiated into parallel and antiparallel conformations. Hb, β-Gal and IgG were prioritized for analysis based on their significant spectral shift in the presence of 1 mM PFNA. FIGS. 14J-14L: Sensograms for BSA (FIG. 14J), β-gal (FIG. 14K), and IgG (FIG. 14L) showing relative response (R.U.) at 10, 25, 50, 75, and 100 μM.
(§2) To explore PFNA-mediated changes in protein structure, dose-response circular dichroism (CD) studies were performed (FIG. 14A-14G). […] Remarkably, these structural changes endured even at sub-stoichiometric PFNA:protein ratios (see 0.001 mM PFNA in […]; protein concentration was constant at 0.01 mM).

β-gal [3] = assay: Circular dichroism with PFNA, β-gal; conditions: 0.001-1 mM PFNA
From the text: as §1, §2

tested proteins = assay: Induction of non-native protein secondary structure
Description: as §2
Prior studies have shown ≥15 vol % of TFE in water, which represents a 2M total concentration, was required to induce protein structural transitions. […] In addition, PFNA appeared to favor modulation of […] structures over α-helices, which can be interpreted by monitoring changes in both ellipticity at 216 nm (FIG. 14H) and percentage of secondary structural motifs (FIG. 14I) relative to the native protein. […] The dose-dependent reduction in the signal after analyte injection may have been due to conformational change of the target protein, as has been observed in prior studies.

β-gal [4] = assay: Isothermal titration calorimetry, β-Gal; assay type: binding
From the text: To test this assertion, PFNA binding to three exemplary proteins, BSA, β-Gal and IgG, was studied via isothermal titration calorimetry (ITC) and surface plasmon resonance (SPR) techniques. […] SPR analysis yielded similar results, with sensorgrams (FIGS. 14J-14L) that diverged from a simple 1:1 ligand-protein model. […] Similar phenomenon may explain the negative signals of the SPR data and further support the ability of PFNA to modulate the conformational plasticity of adsorbed proteins.

eGFP-PC9 lung cells = assay: Imaging of eGFP-PC9 cells with PFNA; assay type: cell-based, human; conditions: PFNA-treated cells
Description: FIG. 21 depicts confocal micrographs of eGFP-PC9 cells in the absence (top) and presence (bottom) of PFNA.
FIG. 22 depicts an analysis of average cellular fluorescence (in relative fluorescence units, RFU) for cells treated without/with PFNA for 1, 2 and 5 hours. Statistical significance was determined using unpaired t-test, with n.s.=not significant, * p<0.05, ** p<0.01 and *** p<0.001.
FIG. 23 depicts analysis of cellular fluorescent area (in relative area units, RAU) for cells treated without/with PFNA for 1, 2 and 5 hours. Statistical significance was determined using unpaired t-test, with n.s.=not significant, * p<0.05, ** p<0.01 and *** p<0.001.
Imaging studies were performed to interpret the effect of PFNA exposure on the transport of endogenous proteins in cells. For these experiments, stably transfected eGFP-PC9 lung cells were prepared to track the time dependent sub-cellular localization of eGFP as a model protein target (FIGS. 21, […]).

HepG2 cells = assay: HepG2 MTT viability assay (Example 2); assay type: cell-based, human; conditions: Homo sapiens, HepG2, 37 °C overnight
Description: FIG. 28 depicts a viability assay for HepG2 cells treated with two first generation compounds and two second generation compounds.
Next, viability assays were performed by seeding HepG2 (liver cancer cell line) onto 96 well plates and allowing the cells to adhere overnight. DMEM cell culture media containing various concentrations of each FTag compound were then added, and the plates were incubated at 37 °C overnight. The supernatant was then removed and MTT viability dyes were added to each well and allowed to convert for 2 hours. Dye absorbance for each condition was then compared to positive (20% DMSO) and negative (blank media) controls to calculate % viability (FIG. 28).

Row | Compound | β-Gal activity versus PBS controls ([1]; bleach) | loss in functionality ([1]; bleach (1% v/v of 10% bleach), few minutes) [%] | CD structural profile, BSA [2] | CD structural change, β-gal (β-gal [3]) | concentration sufficient to induce ordered non-native structure (tested proteins; many of the tested proteins) [mM] | increase in potency in inducing non-native protein secondary structure relative to TFE (tested proteins; relative to trifluoroethanol) | evolution of heat (ITC) (β-gal [4]) | intracellular protein localization (eGFP-PC9 lung cells) | eGFP expression (eGFP-PC9 lung cells; particularly 1 hour) | pIC50 (HepG2 cells)
1 | β-Gal: β-Galactosidase (β-Gal), dissolved in PBS/saline or dispersed in PFOc | statistically higher than that of PBS controls | ≥ 50 | – | – | – | – | – | – | – | –
2 | O=C(O)C(F)(F)C(F)(F)C(F)(F)C(F)(F)C(F)(F)C(F)(F)C(F)(F)C(F)(F)F [Compound 7, perfluoronanonic acid] | – | – | remained largely unchanged | marked increase in β-sheet content | 0.001 | 10^6 | no significant evolution of heat | remained relatively unchanged | significant reduction | 3.27
